In patent publication US20230322846A9, “NEUROACTIVE STEROIDS AND THEIR METHODS OF USE” (SAGE THERAPEUTICS, INC., priority 2018, published 2023):

These molecules were tested against [35S]-TBPS binding, rat brain cortical membranes (assay: Steroid inhibition of [35S]-TBPS binding). Conditions: 3 nM [35S]-TBPS, in the presence of 5 mM GABA.
In short: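 Rat cortical P2 membranes incubated 90 min at room temperature with 3 nM [35S]-TBPS, […] and test compound (0.5% DMSO final) in NaCl/Na–K phosphate pH 7.4; nonspecific binding with […]. Filter-bound radioactivity counted; IC50 and Imax from nonlinear fits, mean ± SEM.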

SMILES | IC50
COC[C@@]1(O)CC[C@H]2[C@@H](CC[C@@H]3[C@@H]2CC[C@]2(C)[C@@H]([C@@H](C)Cn4nnnc4C)CC[C@@H]32)C1 [Example 55, (3R,5S,8R,9R,10S,13S,14S,17R)-3-(methoxymethyl)-13-methyl-17-((R)-1-(5-methyl-1H-tetrazol-1-yl)propan-2-yl)hexadecahydro-1H-cyclopenta[a]phenanthren-3-ol] | < 100 nM
COC[C@@]1(O)CC[C@H]2[C@@H](CC[C@@H]3[C@@H]2CC[C@]2(C)[C@@H]([C@H](C)Cn4nnnc4C)CC[C@@H]32)C1 [Example 56, (3R,5S,8R,9R,10S,13S,14S,17R)-3-(methoxymethyl)-13-methyl-17-((S)-1-(5-methyl-1H-tetrazol-1-yl)propan-2-yl)hexadecahydro-1H-cyclopenta[a]phenanthren-3-ol] | 100 to 1000 nM
CCOC[C@@]1(O)CC[C@H]2[C@H](CC[C@@H]3[C@@H]2CC[C@]2(C)[C@@H]([C@@H](C)Nc4ccc(-n5ccc(C#N)n5)nc4)CC[C@@H]32)C1 [Example 264] | 100 to 1000 nM
C[C@H]([C@H]1CC[C@H]2[C@@H]3CC[C@@H]4C[C@](C)(O)CC[C@@H]4[C@H]3CC[C@]12C)n1ncc(C#N)c1N [Example 154, 5-amino-1-((R)-1-((3R,5R,8R,9R,10S,13S,14S,17S)-3-hydroxy-3,13-dimethylhexadecahydro-1H-cyclopenta[a]phenanthren-17-yl)ethyl)-1H-pyrazole-4-carbonitrile] | 1000 to 10000 nM
C[C@H]([C@H]1CC[C@H]2[C@@H]3CC[C@@H]4C[C@](C)(O)CC[C@@H]4[C@H]3CC[C@]12C)N(C)S(=O)(=O)c1ccccc1 [Example 22, N—((R)-1-((3R,5R,8R,9R,10S,13S,14S,17S)-3-hydroxy-3,13-dimethylhexadecahydro-1H-cyclopenta[a]phenanthren-17-yl)ethyl)-N-methylbenzenesulfonamide] | < 100 nM
CCOC[C@@]1(O)CC[C@H]2[C@H](CC[C@@H]3[C@@H]2CC[C@]2(C)[C@@H]([C@@H](C)Cn4nccc4C#N)CC[C@@H]32)C1 [Example 285, 1-((R)-2-((3R,5R,8R,9R,10S,13S,14S,17R)-3-(ethoxymethyl)-3-hydroxy-13-methylhexadecahydro-1H-cyclopenta[a]phenanthren-17-yl)propyl)-1H-pyrazole-5-carbonitrile] | < 100 nM
CCC[C@@]1(O)CC[C@@]2(C)[C@H](CC[C@@H]3[C@@H]2[C@@H](O)C[C@]2(C)[C@@H]([C@@H](C)Cn4cc(C#N)cn4)CC[C@@H]32)C1 [Example 309, 1-((R)-2-((3R,5R,8S,9S,10S,11S,13S,14S,17R)-3,11-dihydroxy-10,13-dimethyl-3-propylhexadecahydro-1H-cyclopenta[a]phenanthren-17-yl)propyl)-1H-pyrazole-4-carbonitrile] | < 100 nM
CCOC[C@@]1(O)CC[C@H]2[C@H](CC[C@@H]3[C@@H]2CC[C@]2(C)[C@@H]([C@H](Nc4ccc(C#N)cc4C)C(F)(F)F)CC[C@@H]32)C1 [Example 487, 4-(((S)-1-((3R,5R,8R,9R,10S,13S,14S,17S)-3-(ethoxymethyl)-3-hydroxy-13-methylhexadecahydro-1H-cyclopenta[a]phenanthren-17-yl)-2,2,2-trifluoroethyl)amino)-3-methylbenzonitrile] | 100 to 1000 nM
COC[C@@]1(O)CC[C@H]2[C@H](CC[C@@H]3[C@@H]2CC[C@]2(C)[C@@H]([C@@H](C)n4cc(C#N)cn4)CC[C@@H]32)C1 [Example 150, 1-((R)-1-((3R, 5R, 8R, 9R, 10S, 135, 145, 17S)-3-hydroxy-3-(methoxymethyl)-13-methylhexadecahydro-1H-cyclopenta[a]phenanthren-17-yl)ethyl)-1H-pyrazole-4-carbonitrile] | < 100 nM
C[C@H]([C@H]1CC[C@H]2[C@@H]3CC[C@@H]4C[C@](C)(O)CC[C@@H]4[C@H]3CC[C@]12C)n1cc(C#N)cn1 [Example 156, 1-((R)-1-((3R,5R,8R,9R,10S,13S,14S,17S)-3-hydroxy-3,13-dimethylhexadecahydro-1H-cyclopenta[a]phenanthren-17-yl)ethyl)-1H-pyrazole-4-carbonitrile] | < 100 nM
Cc1cc(C#N)ccc1N[C@H](C)[C@H]1CC[C@H]2[C@@H]3CC[C@@H]4C[C@](C)(O)CC[C@@H]4[C@H]3CC[C@]12C [Example 250] | < 100 nM
CC[C@@]1(O)CC[C@H]2[C@H](CC[C@@H]3[C@@H]2CC[C@]2(C)[C@@H]([C@@H](C)Cn4cc(C#N)cn4)CC[C@@H]32)C1 [Example 275, 1-((R)-2-((3R,5R,8R,9R,10S,13S,14S,17R)-3-ethyl-3-hydroxy-13-methylhexadecahydro-1H-cyclopenta[a]phenanthren-17-yl)propyl)-1H-pyrazole-4-carbonitrile] | < 100 nM
C[C@@H](NC(=O)c1ccccc1)[C@H]1CC[C@H]2[C@@H]3CC[C@@H]4C[C@](C)(O)CC[C@@H]4[C@H]3CC[C@]12C [Example 24, N—((R)-1-((3R,5R,8R,9R,10S,13S,14S,17S)-3-hydroxy-3,13-dimethylhexadecahydro-1H-cyclopenta[a]phenanthren-17-yl)ethyl)benzamide] | < 100 nM
CC[C@@H](NCc1ccccc1)[C@H]1CC[C@H]2[C@@H]3CC[C@@H]4C[C@@](O)(COC)CC[C@@H]4[C@H]3CC[C@]12C [Example 214, (3R,5R,8R,9R,10S,13S,14S,17S)-17-((R)-1-(benzylamino)propyl)-3-(methoxymethyl)-13-methylhexadecahydro-1H-cyclopenta[a]phenanthren-3-ol] | 1000 to 10000 nM
COC[C@@]1(O)CC[C@H]2[C@H](CC[C@@H]3[C@@H]2CC[C@]2(C)[C@@H]([C@@H](C)Cn4cc(C#N)cn4)CC[C@@H]32)C1 [Example 92, 1-((R)-2-((3R, 5R, 8R, 9R, 10S, 13S, 14S, 17R)-3-hydroxy-3-(methoxymethyl)-13-methylhexadecahydro-1H-cyclopenta[a]phenanthren-17-yl)propyl)-1H-pyrazole-4-carbonitrile] | < 100 nM
COC[C@@]1(O)CC[C@H]2[C@H](CC[C@@H]3[C@@H]2CC[C@]2(C)[C@@H]([C@@H](C)Cc4cnc(C)cn4)CC[C@@H]32)C1 [Example 422] | < 100 nM
CCOC[C@@]1(O)CC[C@H]2[C@H](CC[C@@H]3[C@@H]2CC[C@]2(C)[C@@H]([C@@H](C)N[C@H](C)c4ccccc4)CC[C@@H]32)C1 [Example 206] | 100 to 1000 nM
CCOC[C@@]1(O)CC[C@H]2[C@H](CC[C@@H]3[C@@H]2CC[C@]2(C)[C@@H]([C@@H](C)Cc4cccc(C#N)c4)CC[C@@H]32)C1 [Example 402, 3-((S)-2-((3R,5R,8R,9R,10S,13R,14S,17R)-3-(ethoxymethyl)-3-hydroxy-13-methylhexadecahydro-1H-cyclopenta[a]phenanthren-17-yl)propyl)benzonitrile] | < 100 nM
